Values quoted from earlier work as cited in US20070027073A1, “Long-acting derivatives of pyy agonists” (priority 2003, published 2007).

Details: in vivo

CCCCCCCCCCC[C@@H](C[C@@H]1OC(=O)[C@H]1CCCCCC)OC(=O)[C@H](CC(C)C)NC=O [Orlistat]
reduction of fat adsorption through the gut: about one third
